The source of these data is BigSolDB 2.1.

The conditions of this data set: in water.

SMILES strings stand for the structures.

For `O=C(O)c1cccc([N+](=O)[O-])c1C(=O)O`, the solubility (mole fraction) was determined as 0.000774 (285.15 K); 0.000984 (292.15 K); 0.00141 (298.15 K); 0.00189 (306.15 K); 0.0026 (313.15 K); 0.00352 (320.15 K). For the same compound, the solubility (mole fraction) reads like this: (327.15 K) 0.00467; (333.15 K) 0.00581; (339.15 K) 0.00713; (344.15 K) 0.00847; (348.15 K) 0.00955.
In the case of `O=C(O)c1ccc([N+](=O)[O-])cc1C(=O)O`, the solubility (mole fraction) came to 0.087 (285.15 K); 0.103 (292.15 K); 0.117 (298.15 K); 0.137 (306.15 K); 0.153 (313.15 K); 0.172 (320.15 K). Besides, the solubility (mole fraction) runs as follows: (327.15 K) 0.188; (333.15 K) 0.2; (339.15 K) 0.211; (344.15 K) 0.218; (348.15 K) 0.222.
